Assay results taken from paper PMC12067128, “Macrocyclization: Enhancing Drug-like Properties of Discoidin Domain Receptor Kinase Inhibitors” (ACS Medicinal Chemistry Letters, 2025).
Read-outs that look alike come from different tables or passages of the source.

Test: pH-metric determination of pKa values (SiriusT3)
Assay type: physicochemical
Conditions: methanol/ISA water cosolvent mixtures (0.15 M KCl), MeOH:ISA water cosolvent, extrapolated to 0% cosolvent, 25 °C, n=4
Protocol: pH-metric determination of pKa values
Experimental pKa was determined by pH-metric approaches using SiriusT3 (PIon Inc. Ltd, Forrest Row, UK) instrument which integrates a dispenser module equipped with precision dispensers, 0.5 mL syringes, a multi-tip capillary bundle, a titrator module, a microstirrer with variable speed, a combined double junction Ag/AgCl pH and reference electrode and a fibre optics dip probe connected to a deuterium UV pulsed light source and a photodiode array (PDA) detector, acquiring spectra in the 200-700 nm wavelength range. SiriusT3 Control software v 1.1.3.0 was employed for acquisition, while Sirius T3 Refine software v. 1.1.3.0 was used for data analysis. The glass microelectrode was standardized by means of a strong acid-strong base titration (0.5N HCl vs. 0.5N KOH) in the pH range 2.0-12.0 at fixed temperature (25±0.5°C) and I = 0.15 M for KCl addition, in N2 atmosphere. […]
The original method was described in a previous paper.e Briefly, a HPLC Thermo Fisher Scientific Dionex Ultimate 3000 instrument equipped with a Low-Pressure Mixing Gradient Pump LPG-3400 SD, ACC-3000 autosampler with termostatable column compartment, a DAD-3000 RS Detector and Chromeleon Data System Version 7.2.10 was used. […] The dead time, t0, was determined by monitoring the baseline disturbance. […]

Cn1cc2c3nc(ncc31)Nc1cnn(c1)CCCNCCOc1ccc-2cc1 [Compound 5a]
pKa (read-out: pKa (basic), amino group (propan-1-amine)): 8.2 | pKa (read-out: pKa (basic), pyrrolo-pyrimidine moiety): 4.35
